Structures are written as SMILES. Several values for one entry are separate records, joined by “and”; a condition that tells them apart may be missing. Identical values can stand only once.

Here are results for 14 compounds from patent publication US9360471B2, “Anti-aging agents and methods to identify them” (priority 2009, dated 2016).

One assay deals with human lymphoblastoid L40. Put plainly: mitochondrial mass in human lymphoblastoid L40, MitoTracker Green FM and FACS. It counts as cell-based. As to conditions: for mitochondrial mass: 2-day treatment, 10 μM LY294002, 2 μM DATS, 1 μM BITC, 1 μM PITC, 2 μg/mL resveratrol, 0.03 μM lycopene, 6.7 μM PEITC, 5 mM silibinin, 1.25 mM selenite, 2.5 mM genistein, 250 μg/mL GSE, 50 μg/mL EGCG, 3 mg/mL bilberry extract, 1 μM AITC, 50 pM rapamycin, 250 μM AICAR. The source says:
Mitochondrial mass was monitored by staining the 60% Ethanol-fixed cells with MitoTracker Green FM prior to FACS analysis.

Assay [1] has as its system senescent WI-38 cells (human primary fibroblast). Put plainly: loss of senescent WI-38 cells, β-galactosidase (X-gal) staining. It counts as cell-based. Conditions: 56 days in senescence; 50 pM rapamycin, 250 μM AICAR, 20 μg/mL EGCG, 1.6 μg/mL GSE, 20 μg/mL bilberry extract, 1 μM AITC, 12.5 μM 2-deoxyglucose; 3-day-on/7-day-off (AICAR 2-day-on/8-day-off). The method, then:
AICAR and reduced glucose treatment were incubated with cells in a 2-day-on/8-day-off cycle, while the rest of agents were in a 3-day-on/7-day-off cycle. The treatment started at passage 29. The medium was refreshed every 3 days. After 56-days from passage 31 (senescence), the cells were briefly fixed in 2% formaldehyde/0.2% glutaraldehyde and stained with 1 mg/mL 5-bromo-4-chloro-3-indolyl β-D-galactoside (X-gal) (in buffer containing 40 mM citric acid/sodium phosphate, pH 6.0, 5 mM potassium ferrocyanide, 5 mM potassium ferricyanide, 150 mM NaCl, and 2 mM MgCl2) at 37° C. for 18 hrs for the senescence marker, cellular β-galactosidase activity (blue in color picture and dark grey in black/white picture). Surviving senescent cells were viewed under a microscope.
This invention discloses that CR or rapamycin also prolongs senescence and prevents cell death induced by telomere dysfunction in human cells. Primary human embryonic lung fibroblasts WI-38 were used. […] Cells at passage 29 were treated with 50 pM rapamycin. The treatment was on a 10-day cycle of 3-day with and 7-day without rapamycin (also termed as 3-day-on/7-day-off cycle). […] Due to increased cytosol β-galactosidase activity, senescent cells are stained a blue color (shown as dark grey in black/white picture). […] Rapamycin didn't transform cells since the senescence marker was still present and cell growth was not observed.

The subject of the next assay is marine models. As to conditions: marine models (Calvert 2008); cited from earlier work.
The subject of assay [2] is cdc13-1 cells. Put plainly: cdc13-1 cell survival after cdc13-1p inactivation, colony formation assay. It counts as cell-based, budding yeast. Conditions: for cell death triggered by inactivation of cdc13-1p (colony formation assay): 37° C. about 30 hrs, 6.7 μM PEITC, 5 mM silibinin, 1.25 mM selenite, 2.5 mM genistein, 250 μg/mL GSE, 50 μg/mL EGCG, 3 mg/mL bilberry extract. The method, then:
To induce telomere dysfunction, fresh overnight cultures of cdc13-1 were diluted into YEPD medium with the indicated concentrations of glucose or 2-deoxyglucose and incubated at 37° C. for 24 hrs. For colony formation assay, treated cells were then serially diluted 10-fold in H2O and 5 μL was spotted onto regular YEPD plates. The plates were incubated at 24° C. for survived cells to form colonies. The starting number of live-cells was also counted by this colony formation assay. (B) Nitrogen restriction inhibits cell death induced by cdc13-1p inactivation as monitored by a colony formation assay. Cells were incubated in synthetic medium (SC) or SC—N (SC without amino acids and (NH4)2SO4 as nitrogen sources) at 37° C. for 24 hrs. The number of survived cells was counted using colony formation assay as described in 1A. (C-D) Inhibition of TOR by low doses of rapamycin (labeled as Rapa) (below growth inhibition concentration) can prevent cell death induced by cdc13-1p inactivation. Cells were incubated with the indicated concentrations of rapamycin in YEPD medium at 37° C. for 24 hrs. The number of survived cells was measured by the colony formation assay as in 1A. For growth curve, fresh overnight culture was diluted into YEPD medium and incubated at 24° C. in the presence of the indicated concentrations of rapamycin. Cell Density (OD595) was measured at the indicated time points and plotted against the time. (E) Deterioration of growth arrested cdc13-1 cells can be delayed by low dose of rapamycin (1 nM) and glucose restriction (0.5%) as measured by counting surviving cells using the colony formation assay. The data represent an average of three experiments.
(§1) (A) Cells were incubated at 37° C. to inactivated cdc13-1p, in YEPD medium, YEPD+1 nM rapamycin or YEPD with 0.5% glucose. At the indicated time points, an aliquot of cells was taken out and fixed with 50% ethanol at −20° C. for about 4 hrs, and then digested with 0.2 mg/mL RNase A in 50 mM Tris pH 7.6 at 37° C. overnight. The cells were next washed with 50 mM Tris pH 7.6 and treated with 40 μg/mL proteinase K at 55° C. for 2 hrs. After being washed again, cells were stained with 100 μg/mL propidium iodide for 20 min in the dark prior to FACS (Fluorescence activated cell sorter) analysis. […] Cells were incubated at 37° C. for 2 hours first, then diluted with a 37° C.-YEPD medium, YEPD with rapamycin to make a final concentration of 1 nM, or with a 37° C.-medium without glucose to make final 0.5% glucose. The cells were continuously incubated at 37° C. for 22 hrs. Surviving cells were counted using the colony formation assay.
The 6.7 μM PEITC, 5 mM silibinin, 1.25 mM selenite, 2.5 mM genistein, 250 μg/mL grape seed extract (GSE), 50 μg/mL EGCG, and 3 mg/mL bilberry extract (BE) were incubated with cells at 37° C. for about 30 hrs. The cell survival was measured by the colony formation assay at a permissive temperature 24° C.
In addition, limitation of nitrogen by SC—N medium (containing 0.67% yeast nitrogen base in absence of amino acids and (NH4)2SO4, 2% glucose, plus a mixture of 100 mg/L each of histidine, leucine, tryptophan and uracil for this yeast strain) prevented the cell death (FIG. 1B). […] After 60 hrs of incubation at 37° C., cell survival was at least 100-fold more than those without treatment.

Another assay concerns NIH3T3 cells. Kind of assay: mitochondrial mass in NIH3T3 cells treated with TPA. It is filed as cell-based, mouse. As to conditions: 10 μM TPA, two days. The method, then: NIH3T3 cells were incubated in DMEM medium (DMEM with 10% FCS, 100 units/mL penicillin, 100 μg/mL streptomycin and 2 mM glutamine) in the presence of control DMSO, 10 μM TPA, 1 nM rapamycin, 10 μM TPA+1 nM rapamycin, 40 μM AICAR, or 10 μM TPA+40 μM AICAR at 37° C. in a humidified atmosphere consisting of 95% air and 5% CO2 for two days. Cells were then harvested by trypsin and fixed by 60% ethanol. The cells were stained with MitoTracker Greeen FM in darkness for 30 min prior to FACS analysis. The data represents the average of a triplica-experiment.

For assay [3], the system named is cdc13-1 cells. Kind of assay: DNA content / cell cycle FACS analysis after cdc13-1p inactivation. It is filed as cell-based, budding yeast. Conditions: rapamycin 1 nM in YEPD, 37° C. for 2 hrs. The method, then:
as §1
(A flow cytometer gives signals particle by particle.)

A further assay has as its system WI-38 cells. Put plainly: growth and population doubling of WI-38 cells. It is filed as cell-based, human. Conditions: 25 pM rapamycin; without rapamycin 5.18 or 5.12. The method, then: (A) WI-38 cells were treated with the indicated concentrations of rapamycin as in FIG. 7. The treatment started at passage 29. Cells entered senescence at passage 31. After 65-days in senescence, surviving cells were measured by MTT (3-(4,5-dimethylthiazol-2-yl)-2,5-diphenyltetrazolium bromide, a tetrazole) staining. The purple color of MTT generated by mitochondrial reductase was read in 570 nm by a microplate reader. The data is a representative of three independent duplica-experiments. (B) The effect of rapamycin on growth of WI-38 cells. Cells were cultured as in FIG. 7. Arrows indicate the time point when rapamycin was added. 25 pM rapamycin has little effect on growth rate, but increases the population doubling (PD) from 5.18 to 6.82. Population doublings were calculated using the following formula: PD=log(Nf/N0)/log 2, where Nf is the final cell number and N0 is the number of initially seeded cells. Data is a representative of two independent duplica-experiments. (C) The low doses of rapamycin increase protein levels of p53, p21 and pRB. WI-38 cells on the 20th day after the last split (senescence) were treated with rapamycin for 18 hrs. Cell lysates were then analyzed by Western blotting using antibodies specifically against p53, p21 or pRB.

Consider `C=CCN=C=S` [AITC, allyl isothiocyanate], for which the mitochondrial mass entry in the assay on human lymphoblastoid L40 is given as “increased”. Further, the “loss of the senescent WI-38 cells” value in assay [1] was “prevented”.

For the compound `Oc1ccc(C=Cc2cc(O)cc(O)c2)cc1` [resveratrol], the mitochondrial mass entry in the assay with human lymphoblastoid L40 was “increased”. `CN(C)C(=N)N=C(N)N` [metformin]: the myocardial infarction result in the assay with marine models was “can reduce myocardial infarction”. On to `O=[Se]([O-])[O-].[Na+].[Na+]` [selenite, selenite (Na2SeO3)], for which the mitochondrial mass result in the assay with human lymphoblastoid L40 is on record as “increased”. The “cell death triggered by inactivation of cdc13-1p (colony formation assay)” value (from here on “cell death triggered by inactivation”) in the assay with cdc13-1 cells [2] is given as “inhibited cell death”. With `CCCCCCCCCCCCCC(=O)O[C@@H]1[C@@H](C)[C@@]2(O)[C@@H](C=C(CO)C[C@]3(O)C(=O)C(C)=C[C@@H]23)[C@@H]2C(C)(C)[C@]12OC(C)=O` [TPA, 12-O-tetradecanoylphorbol 13-acetate], in the assay with NIH3T3 cells, the “mitochondrial mass in NIH 3T3 cells” value was “dramatically decreased the mitochondrial mass”. Turning to `CO[C@H]1C[C@@H]2CC[C@@H](C)[C@@](O)(O2)C(=O)C(=O)N2CCCC[C@H]2C(=O)O[C@H]([C@H](C)C[C@@H]2CC[C@@H](O)[C@H](OC)C2)CC(=O)[C@H](C)/C=C(\C)[C@@H](O)[C@@H](OC)C(=O)[C@H](C)C[C@H](C)/C=C/C=C/C=C/1C` [rapamycin], the “cells entered the G2/M phase of cell cycle” value in the assay on cdc13-1 cells [3] was “more than 95%”. The “cell survival compared with those without treatment” value with cdc13-1 cells [2] (low dose of rapamycin (1 nM), after 60 hrs of incubation at 37° C.) is listed as “at least 100 fold”. For the same compound, in the assay on WI-38 cells, the “population doubling (PD), replication potential” value was 6.8 and 6.82. In the case of `O=c1c(-c2ccc(O)cc2)coc2cc(O)cc(O)c12` [genistein], in the assay with human lymphoblastoid L40, the mitochondrial mass result is reported as “increased”. In addition, the “cell death triggered by inactivation” value with cdc13-1 cells [2] is “inhibited cell death”. With `O=CC[C@@H](O)[C@H](O)[C@H](O)CO` [2-deoxyglucose, reference compound], the mitochondria mass result with human lymphoblastoid L40 (12.5 μM 2-deoxyglucose) was “increased mitochondria mass”. For the same compound, the “cell death induced by inactivation of cdc13-1p (colony formation assay)” value in the assay with cdc13-1 cells [2] (200 μM added to YEPD with 2% glucose, 37° C. 22 hrs) was “prevented cell death effectively”. In assay [1], the “loss of the senescent WI-38 cells” value is given as “prevented”. Regarding `O=C(O[C@@H]1Cc2c(O)cc(O)cc2O[C@@H]1c1cc(O)c(O)c(O)c1)c1cc(O)c(O)c(O)c1` [EGCG, Epigallocatechin gallate], the mitochondrial mass entry in the assay on human lymphoblastoid L40 is “increased”. The “cell death triggered by inactivation” value in the assay with cdc13-1 cells [2] is recorded as “inhibited cell death”. The “loss of the senescent WI-38 cells” value in assay [1] is on record as “prevented”. Regarding `C=CCSSSCC=C` [diallyl trisulfide], in the assay with human lymphoblastoid L40, the mitochondrial mass entry was “increased”. On the same count and under the same terms, in the case of `S=C=NCc1ccccc1` [benzyl isothiocyanate] it was “increased”. Still for that read-out and setting: in the case of `S=C=Nc1ccccc1` [phenyl isothiocyanate] it was “increased”. Turning to `S=C=NCCc1ccccc1` [PEITC, phenethyl isothiocyanate], the mitochondrial mass result with human lymphoblastoid L40 is recorded as “increased”. In the assay with cdc13-1 cells [2], the “cell death triggered by inactivation” value is “inhibited cell death”. Turning to `CC(C)=CCC/C(C)=C/C=C/C(C)=C/C=C/C(C)=C/C=C/C=C(C)/C=C/C=C(C)/C=C/C=C(\C)CCC=C(C)C` [lycopene], the mitochondrial mass entry in the assay on human lymphoblastoid L40 is “increased”.
